Measurements as given in patent US9253985B2, “Herbicidal composition for tolerant or resistant cereal crops” (priority 2010, dated 2016).
Where two headings read alike, the source gives them in different places.

Experiments:
Type in all cases: in vivo
[1] = system: Matricaria chamomilla; assay: Greenhouse trial: herbicidal efficacy, Matricaria chamomilla; conditions: post-emergence 2-4-leaf, 14 days after application, g of ai/ha: A1.1 100, B1.1 5, C5 1.25, C24 12.5, C9 7.5, C32 62.5, C37 5, C58 5, C60 10, C61 25, C66 0.375, C71 0.5, C74 0.375, C42 125, mixtures at same rates
Experimental: (§1) The trials were carried out under greenhouse conditions (test pots, diameter 8 cm, spray application using 300 l of water/hectare, 2 repetitions, 6 to 8 plants per pot).
(§2) At the time of application, the harmful plants were at the 2-4-leaf growth stage. The application rates of the herbicidally active compounds used on their own or in combinations are listed in the results tables.
(§3) Scoring was by visual comparison of the treated with the untreated controls (0-100% scale, 14 days after the application. The results (means for all plants per pot and means of two repetitions per pot and treatment) are listed in Tables 4 to 8 below.
(§4) 4.2 Abbreviations used in Tables 4 to 6application rate g/ai=application rate in grams of active compound per hectare • ai=active ingredient (of an active compound content of 100%) • GA=glufosinate-ammonium • wheat tolerant • to GA=GA-tolerant wheat (GMO) • E^C=expected value according to Colby, (E^C=A+B−A×B/100)= • =for ternary combinations: (A+B)+C−(A+B)×C/100 • E^A=expected value according to the addition method (E^A=A+B) • Δ=difference (%) between observed value —%—vs. expected value (%) (observed value minus expected value) • examination: observed values for (A), (B) and (A)+(B) in % • scoring: observed value (%) greater>than E^C/E^A:->synergism (+Δ) • observed value (%) equal to =E^C/E^A->additive effect (+−0Δ) • observed value (%) smaller<than E^A/E^C->antagonism (−Δ)

[2] = system: Lolium multiflorum; assay: Greenhouse trial: herbicidal efficacy, Lolium multiflorum; conditions: post-emergence 2-4-leaf, 14 days after application, g of ai/ha: A1.1 100, B1.1 5, C62 1.25, C4 60, mixtures at same rates
Experimental: as §1, §2, §3, §4

[3] = system: wheat (GA-tolerant)
Experimental: as §1
(§5) At the time of application, the harmful plants were at the 2-4-leaf growth stage.

[4] = system: Viola arvensis; assay: Greenhouse trial: herbicidal efficacy, Viola arvensis; conditions: post-emergence 2-4-leaf, 14 days after application, g of ai/ha: A1.1 100, B1.1 5, C7 100, C25 1.25, C52 2.5, C43 100, C57 5, mixtures at same rates
Experimental: as §1, §5

[5] = system: Setaria viridis; assay: Greenhouse trial: herbicidal efficacy, Setaria viridis; conditions: post-emergence 2-4-leaf, 14 days after application
Experimental: as §1, §2, §3, §4

[6] = system: Brassica napus (volunteer weed); assay: Greenhouse trial: herbicidal efficacy, Brassica napus; conditions: post-emergence 2-4-leaf, 14 days after application, g of ai/ha: A1.1 100, B1.1 5, C12 12.5, C18 50, mixtures at same rates
Experimental: as §1, §2, §3, §4

[7] = Table 4, greenhouse, post-emergence, 14 days after application, g of ai/ha: A1.1 100, B1.1 5, C5 1.25, C24 12.5, C9 7.5, C32 62.5, C37 5, C58 5, C60 10, C61 25, C66 0.375, C71 0.5, C74 0.375, C42 125, mixtures at same rates
[8] = Table 5, greenhouse, post-emergence, 14 days after application, g of ai/ha: A1.1 100, B1.1 5, C7 100, C25 1.25, C52 2.5, C43 100, C57 5, mixtures at same rates
[9] = Table 6, greenhouse, post-emergence, 14 days after application, g of ai/ha: A1.1 100, B1.1 5, C12 12.5, C18 50, mixtures at same rates
[10] = Table 7, greenhouse, post-emergence, 14 days after application, g of ai/ha: A1.1 100, line r12 5, C28 50, C40 1, C43 100, C13 50, mixtures (100 + 5) + partner rate
[11] = Table 8, greenhouse, post-emergence, 14 days after application, g of ai/ha: A1.1 100, B1.1 5, C62 1.25, C4 60, mixtures at same rates
[12] = g of ai/ha: A1.1 100, line r12 5, C28 50, C40 1, C43 100, C13 50, mixtures (100 + 5) + partner rate

## CP(=O)(O)CCC(N)C(=O)O (stereo not drawn) [(A1.1) GA, glufosinate-ammonium]
[1]
  Herbicidal efficacy (%) Matricaria chamomilla: 50%
[2]
  Herbicidal efficacy (%) Lolium multiflorum: 15%
[3]; [7]
  Damage to crop plants (%) wheat (GA-tolerant): 10%
[3]; [8]
  Damage to crop plants (%) wheat (GA-tolerant): 10%
[3]; [9]
  Damage to crop plants (%) wheat (GA-tolerant): 10%
[3]; [10]
  Damage to crop plants (%) wheat (GA-tolerant): 10%
[3]; [11]
  Damage to crop plants (%) wheat (GA-tolerant): 10%
[4]
  Herbicidal efficacy (%) Viola arvensis: 50%
[5]; g of ai/ha: A1.1 100, C28 50, C40 1, C43 100, C13 50, mixtures (100 + 5) + partner rate
  Herbicidal efficacy (%) Setaria viridis: 90%
[6]
  Herbicidal efficacy (%) Brassica napus: 15%

## COC(=O)c1nc(-c2ccc(Cl)c(OC)c2F)cc(N)c1Cl [(B1.1), methyl 4-amino-3-chloro-6-(4-chloro-2-fluoro-3-methoxyphenyl)pyridine-2-carboxylate]
[1]
  Herbicidal efficacy (%) Matricaria chamomilla: 20%
[2]
  Herbicidal efficacy (%) Lolium multiflorum: 0%
[3]; in vivo
  Damage to crop plants (%) wheat (GA-tolerant): 0%
[4]
  Herbicidal efficacy (%) Viola arvensis: 50%
[6]
  Herbicidal efficacy (%) Brassica napus: 60%

## CCOC(=O)C1=NN(c2ccc(Cl)cc2Cl)C(C)(C(=O)OCC)C1 (stereo not drawn) [(C4) mefenpyr-di-et, mefenpyr(-diethyl)]
[2]
  Herbicidal efficacy (%) Lolium multiflorum: 0%
[3]; [11]
  Damage to crop plants (%) wheat (GA-tolerant): 0%

## COc1cc(OC)nc(NC(=O)NS(=O)(=O)N(C)S(C)(=O)=O)n1 [(C5) amidosulfuron, amidosulfuron]
[1]
  Herbicidal efficacy (%) Matricaria chamomilla: 45%
[3]; in vivo
  Damage to crop plants (%) wheat (GA-tolerant): 0%

## N#Cc1cc(Br)c(O)c(Br)c1 [(C7) bromoxynil, bromoxynil]
[3]; [8]
  Damage to crop plants (%) wheat (GA-tolerant): 0%
[4]
  Herbicidal efficacy (%) Viola arvensis: 20%

## CCOC(=O)C(Cl)Cc1cc(-n2nc(C)n(C(F)F)c2=O)c(F)cc1Cl (stereo not drawn) [(C9) carfentrazone, carfentrazone-ethyl]
[1]
  Herbicidal efficacy (%) Matricaria chamomilla: 0%
[3]; [7]
  Damage to crop plants (%) wheat (GA-tolerant): 10%

## C#CCOC(=O)[C@@H](C)Oc1ccc(Oc2ncc(Cl)cc2F)cc1 [(C12) clodinafop, clodinafop-propargyl]
[3]; in vivo
  Damage to crop plants (%) wheat (GA-tolerant): 0%
[6]
  Herbicidal efficacy (%) Brassica napus: 0%

## O=C(O)COc1ccc(Cl)cc1Cl [(C13) 2,4-D, 2,4-D]
[3]; [10]
  Damage to crop plants (%) wheat (GA-tolerant): 0%
[5]; [12]
  Herbicidal efficacy (%) Setaria viridis: 0%

## O=C(Nc1ccc(F)cc1F)c1cccnc1Oc1cccc(C(F)(F)F)c1 [(C18) diflufenican, diflufenican]
[3]; [9]
  Damage to crop plants (%) wheat (GA-tolerant): 10%
[6]
  Herbicidal efficacy (%) Brassica napus: 30%

## CCOC(=O)[C@@H](C)Oc1ccc(Oc2nc3ccc(Cl)cc3o2)cc1 [(C24) fenoxaprop-p-et., fenoxaprop-P-ethyl]
[1]
  Herbicidal efficacy (%) Matricaria chamomilla: 0%
[3]; [7]
  Damage to crop plants (%) wheat (GA-tolerant): 0%

## COc1ncc(F)c2nc(S(=O)(=O)Nc3c(F)cccc3F)nn12 [(C25) florasulam, florasulam]
[3]; [8]
  Damage to crop plants (%) wheat (GA-tolerant): 0%
[4]
  Herbicidal efficacy (%) Viola arvensis: 20%

## CC(C)N(C(=O)COc1nnc(C(F)(F)F)s1)c1ccc(F)cc1 [(C28) flufenacet, flufenacet (thiafluamide)]
[5]; [12]
  Herbicidal efficacy (%) Setaria viridis: 20%

## CNC1=C(c2cccc(C(F)(F)F)c2)C(=O)C(c2ccccc2)O1 (stereo not drawn) [(C32) flurtamone, flurtamone]
[1]
  Herbicidal efficacy (%) Matricaria chamomilla: 25%
[3]; [7]
  Damage to crop plants (%) wheat (GA-tolerant): 15%

## COCc1cnc(C2=NC(C)(C(C)C)C(=O)N2)c(C(=O)O)c1 (stereo not drawn) [(C37) imazamox, imazamox]
[1]
  Herbicidal efficacy (%) Matricaria chamomilla: 0%
[3]; [7]
  Damage to crop plants (%) wheat (GA-tolerant): 15%

## COC(=O)c1ccc(I)cc1S(=O)(=O)[N-]C(=O)Nc1nc(C)nc(OC)n1.[Na+] [(C40) iodosulfuron-me-Na, iodosulfuron-methyl-sodium]
[3]; [10]
  Damage to crop plants (%) wheat (GA-tolerant): 0%
[5]; [12]
  Herbicidal efficacy (%) Setaria viridis: 10%

## CC(C)c1ccc(NC(=O)N(C)C)cc1 [(C42) isoproturon, isoproturon]
[1]
  Herbicidal efficacy (%) Matricaria chamomilla: 15%
[3]; in vivo
  Damage to crop plants (%) wheat (GA-tolerant): 0%

## Cc1cc(Cl)ccc1OCC(=O)O [(C43) MCPA, MCPA]
[3]; [8]
  Damage to crop plants (%) wheat (GA-tolerant): 0%
[3]; [10]
  Damage to crop plants (%) wheat (GA-tolerant): 0%
[4]
  Herbicidal efficacy (%) Viola arvensis: 10%
[5]; [12]
  Herbicidal efficacy (%) Setaria viridis: 0%

## COC(=O)c1ccc(CNS(C)(=O)=O)cc1S(=O)(=O)NC(=O)Nc1nc(OC)cc(OC)n1 [(C52) mesosulfuron-me, mesosulfuron-methyl]
[3]; in vivo
  Damage to crop plants (%) wheat (GA-tolerant): 0%
[4]
  Herbicidal efficacy (%) Viola arvensis: 0%

## COc1cnc(OC)n2nc(NS(=O)(=O)c3c(OCC(F)F)cccc3C(F)(F)F)nc12 [(C57) penoxulam, penoxsulam]
[3]; in vivo
  Damage to crop plants (%) wheat (GA-tolerant): 0%
[4]
  Herbicidal efficacy (%) Viola arvensis: 5%

## CCc1cc(C)cc(CC)c1-c1c(OC(=O)C(C)(C)C)n2n(c1=O)CCOCC2 [(C58) pinoxaden, pinoxaden]
[1]
  Herbicidal efficacy (%) Matricaria chamomilla: 0%
[3]; [7]
  Damage to crop plants (%) wheat (GA-tolerant): 0%

## CCCOc1nn(C(=O)[N-]S(=O)(=O)c2ccccc2C(=O)OC)c(=O)n1C.[Na+] [(C60) propoxycarbazone-Na, propoxycarbazone-sodium]
[1]
  Herbicidal efficacy (%) Matricaria chamomilla: 10%
[3]; [7]
  Damage to crop plants (%) wheat (GA-tolerant): 10%

## Cc1nn(C)c(O)c1C(=O)c1ccc(C(F)(F)F)cc1S(C)(=O)=O [(C61) pyrasulfutole, pyrasulfutole]
[1]
  Herbicidal efficacy (%) Matricaria chamomilla: 50%
[3]; in vivo
  Damage to crop plants (%) wheat (GA-tolerant): 0%

## COc1cc(OC)n2nc(NS(=O)(=O)c3c(C(F)(F)F)ccnc3OC)nc2n1 [(C62) pyroxulam, pyroxsulam]
[2]
  Herbicidal efficacy (%) Lolium multiflorum: 40%
[3]; in vivo
  Damage to crop plants (%) wheat (GA-tolerant): 10%

## COC(=O)c1csc(C)c1S(=O)(=O)NC(=O)n1nc(OC)n(C)c1=O [(C66) thiencarbazone-me, thiencarbazone-methyl]
[1]
  Herbicidal efficacy (%) Matricaria chamomilla: 10%
[3]; in vivo
  Damage to crop plants (%) wheat (GA-tolerant): 5%

## COc1nc(C)nc(N(C)C(=O)NS(=O)(=O)c2ccccc2C(=O)O)n1 [(C71) tribenuron, tribenuron]
[1]
  Herbicidal efficacy (%) Matricaria chamomilla: 0%
[3]; [7]
  Damage to crop plants (%) wheat (GA-tolerant): 0%

## COc1nc(C)nc(=NC(=O)NS(=O)(=O)c2ccccc2C(=O)O)[nH]1 [(C74) metsulfuron, metsulfuron]
[3]; [7]
  Damage to crop plants (%) wheat (GA-tolerant): 0%
